# Reference: ChEMBL document CHEMBL1149508, “From arylureas to biarylamides to aminoquinazolines: discovery of a novel, potent TRPV1 antagonist” (Bioorg Med Chem Lett, 2006)
# Calls of active or inactive are those of the source. No cut-off for these calls is given here.
# Key:
# [1] = target: T1, Transient receptor potential cation channel subfamily V member 1 (Homo sapiens, UniProt Q8NER1); assay: Antagonist activity against capsaicin-activated human VR1 by FLIPR assay; type: functional
# [2] = target: Transient receptor potential cation channel subfamily V member 1 (Rattus norvegicus, UniProt O35433); assay: Antagonist activity against low pH(5.0-5.5)-activated rat VR1; type: functional
# [3] = Half life in rat at 3 mg/kg, iv; type: ADME, organism-based; parameters: dose 3 mg/kg, route intravenous; details: in vivo
# [4] = Clearance in rat at 3 mg/kg, iv; type: ADME, organism-based; parameters: dose 3 mg/kg, route intravenous; details: in vivo
# [5] = Volume of distribution in rat at 3 mg/kg, iv; type: ADME, organism-based; parameters: dose 3 mg/kg, route intravenous; details: in vivo, read-out: Vdss
# [6] = Tmax in rat at 3 mg/kg, iv; type: ADME, organism-based; parameters: dose 3 mg/kg, route intravenous; details: in vivo
# [7] = Bioavailability in rat at 3 mg/kg, iv; type: ADME, organism-based; details: in vivo
# [8] = target: T1, Transient receptor potential cation channel subfamily V member 1; assay: Agonist activity at human VR1 expressed in HEK293 cells upto 4 uM; type: functional, cell-based
# [9] = Aqueous solubility at pH 7.4 by HTsol assay; type: physicochemical; details: buffer
# [10] = Bioavailability in rat; type: ADME, organism-based; details: in vivo
# Sequence of Transient receptor potential cation channel subfamily V member 1 (Rattus norvegicus, UniProt O35433) (O35433 whole entry): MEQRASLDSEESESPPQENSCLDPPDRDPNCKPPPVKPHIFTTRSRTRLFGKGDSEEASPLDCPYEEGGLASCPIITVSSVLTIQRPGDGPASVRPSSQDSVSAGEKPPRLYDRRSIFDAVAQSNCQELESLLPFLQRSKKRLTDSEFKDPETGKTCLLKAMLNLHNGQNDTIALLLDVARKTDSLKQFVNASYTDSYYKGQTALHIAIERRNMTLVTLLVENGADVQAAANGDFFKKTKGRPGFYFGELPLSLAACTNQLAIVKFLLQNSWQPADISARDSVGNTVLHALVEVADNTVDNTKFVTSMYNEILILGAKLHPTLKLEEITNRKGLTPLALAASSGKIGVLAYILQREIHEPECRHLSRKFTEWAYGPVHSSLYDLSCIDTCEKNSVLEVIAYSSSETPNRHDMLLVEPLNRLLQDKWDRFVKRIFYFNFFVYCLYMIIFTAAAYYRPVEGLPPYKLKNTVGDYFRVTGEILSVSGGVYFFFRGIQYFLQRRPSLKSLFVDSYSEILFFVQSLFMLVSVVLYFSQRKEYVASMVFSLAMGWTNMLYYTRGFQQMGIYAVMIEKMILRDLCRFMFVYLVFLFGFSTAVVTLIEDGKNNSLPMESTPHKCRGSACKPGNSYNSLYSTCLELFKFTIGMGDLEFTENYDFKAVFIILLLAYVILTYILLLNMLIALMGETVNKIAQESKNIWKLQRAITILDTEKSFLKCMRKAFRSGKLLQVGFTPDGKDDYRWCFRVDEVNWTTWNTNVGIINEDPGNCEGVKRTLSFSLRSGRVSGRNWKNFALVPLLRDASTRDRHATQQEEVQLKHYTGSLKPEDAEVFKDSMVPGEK
# T1 sequence (Q8NER1 whole entry): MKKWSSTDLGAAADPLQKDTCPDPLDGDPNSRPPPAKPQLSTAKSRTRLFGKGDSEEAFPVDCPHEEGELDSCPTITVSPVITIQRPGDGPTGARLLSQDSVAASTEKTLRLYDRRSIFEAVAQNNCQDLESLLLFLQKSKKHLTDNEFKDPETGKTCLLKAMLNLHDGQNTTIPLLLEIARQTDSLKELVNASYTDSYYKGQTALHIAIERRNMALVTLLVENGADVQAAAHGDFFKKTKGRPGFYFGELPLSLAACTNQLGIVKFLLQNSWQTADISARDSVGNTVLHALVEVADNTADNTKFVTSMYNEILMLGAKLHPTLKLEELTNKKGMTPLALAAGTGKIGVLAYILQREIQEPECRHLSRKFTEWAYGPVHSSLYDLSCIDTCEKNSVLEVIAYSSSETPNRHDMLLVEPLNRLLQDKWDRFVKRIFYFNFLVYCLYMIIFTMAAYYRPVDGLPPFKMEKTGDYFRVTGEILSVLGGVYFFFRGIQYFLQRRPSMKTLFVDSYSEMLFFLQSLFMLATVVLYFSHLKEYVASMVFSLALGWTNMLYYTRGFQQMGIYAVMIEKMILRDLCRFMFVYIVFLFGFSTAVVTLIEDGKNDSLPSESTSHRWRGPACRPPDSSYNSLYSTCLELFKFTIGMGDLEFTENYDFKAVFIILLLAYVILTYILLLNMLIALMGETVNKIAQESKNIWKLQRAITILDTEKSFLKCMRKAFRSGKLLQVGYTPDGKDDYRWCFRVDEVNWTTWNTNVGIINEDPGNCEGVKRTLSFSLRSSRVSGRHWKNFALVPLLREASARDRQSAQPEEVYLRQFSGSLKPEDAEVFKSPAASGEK
SMILES,IC50 [1],IC50 [2],further results
COc1ccc(NC(=O)c2ccc(-c3ncccc3C)cc2)cc1,> 4000 nM,> 4000 nM,
C[C@@H]1CN(c2ncccc2C(F)(F)F)CCN1C(=O)Nc1ccc(C(F)(F)F)cc1,17 nM,11 nM,half-life [3]: 7.2 h; clearance [4]: 39 mL/min/kg; Vd [5]: 12 L/kg; Tmax [6]: 0.5 h; bioavailability [7]: 27%; Activity [8]: inactive
CCCNCc1cccnc1-c1ccc(C(=O)Nc2ccc(C(C)(C)C)cc2)cc1,4300 nM,639 nM,
Cc1cccnc1-c1ccc(C(=O)Nc2ccccn2)cc1,> 4000 nM,> 4000 nM,
CC(C)(C)c1ccc(NC(=O)c2ccc(-c3ncccc3NO)cc2)cc1,49 nM,5 nM,
O=C(Nc1ccc(C(F)(F)F)cc1)c1ccc(-c2ncccc2C(F)(F)F)cc1F,131 nM,348 nM,
Cc1cccnc1-c1ccc(C(=O)Nc2ccc(F)cc2)cc1,> 4000 nM,> 4000 nM,
Cc1cccnc1-c1ccc(C(=O)Nc2ccc(C(F)(F)F)cc2)cc1,65 nM,81 nM,
CC(C)(C)c1ccc(NC(=O)c2ccc(-c3ncccc3NS(=O)(=O)Cc3ccccc3)cc2)cc1,377 nM,159 nM,
CC(=O)Nc1cccnc1-c1ccc(C(=O)Nc2ccc(C(C)(C)C)cc2)cc1,1110 nM,290 nM,
Cc1cccnc1-c1ccc(C(=O)Nc2ccc(Cl)cc2)cc1,1500 nM,2020 nM,
CC(C)(C)c1ccc(NC(=O)c2ccc(-c3ncccc3-c3nnn[nH]3)cc2)cc1,> 4000 nM,> 4000 nM,
CN(C)Cc1cccnc1-c1ccc(C(=O)Nc2ccc(C(C)(C)C)cc2)cc1,746 nM,234 nM,solubility [9]: 50 µg/mL
CC(C)(C)c1ccc(NC(=O)c2ccc(-c3ncccc3N(S(C)(=O)=O)S(C)(=O)=O)cc2)cc1,0.8 nM,0.4 nM,solubility [9]: 1 µg/mL
CC(C)(C)c1ccc(NC(=O)c2ccc(-c3ccccn3)cc2)cc1,11 nM,8 nM,
CC(C)(C)c1ccc(NC(=O)c2ccc(-c3ncccc3N)cc2)cc1,123 nM,325 nM,
CC(C)(C)c1ccc(NC(=O)c2ccc(-c3ncccc3C(F)(F)F)cc2)cc1,6 nM,4 nM,bioavailability [10]: 2%
Cc1cc(C(=O)Nc2ccc(C(F)(F)F)cc2)ccc1-c1ncccc1C,233 nM,190 nM,
CCCCS(=O)(=O)Nc1cccnc1-c1ccc(C(=O)Nc2ccc(C(C)(C)C)cc2)cc1,162 nM,141 nM,
CC(C)(C)c1ccc(NC(=O)c2ccc(-c3ncccc3NC3CCCC3)cc2)cc1,190 nM,44 nM,
Cc1ccc(NC(=O)c2ccc(-c3ncccc3C)cc2)cc1,2580 nM,> 4000 nM,
CC(C)(C)c1ccc(NC(=O)c2ccc(-c3ncccc3[N+](=O)[O-])cc2)cc1,5 nM,5 nM,

SMILES,IC50 [1],IC50 [2],further results
O=C(Nc1ccc(C(F)(F)F)cn1)c1ccc(-c2ncccc2C(F)(F)F)cc1,24 nM,65 nM,
O=C(Nc1ccc(C(F)(F)F)cc1)c1ccc(-c2ncccc2C(F)(F)F)cc1[N+](=O)[O-],392 nM,222 nM,
O=C(Nc1ccccc1)c1ccc(-c2ncccc2C(F)(F)F)cc1,> 4000 nM,,
O=C(Nc1ccc(C(F)(F)F)cc1)c1ccc(-c2ncccc2C(F)(F)F)nc1O,> 4000 nM,764 nM,
COc1cc(-c2ncccc2C(F)(F)F)ccc1C(=O)Nc1ccc(C(F)(F)F)cc1,> 4000 nM,1040 nM,
Cc1cccnc1-c1ccc(C(=O)Nc2ccc(C(F)(F)F)cc2)nc1,1780 nM,1580 nM,
FC(F)(F)c1ccc(Nc2ncnc3cc(-c4ncccc4C(F)(F)F)ccc23)cc1 [NGD-8243],,1.4 nM,half-life [3]: 8.1 h; clearance [4]: 23 mL/min/kg; Vd [5]: 12.5 L/kg; Tmax [6]: 0.7 h; bioavailability [7]: 99%; Activity [8]: inactive
Cc1cccnc1-c1ccc(C(=O)Nc2ccc(OC(F)(F)F)cc2)cc1,974 nM,896 nM,
CC(C)(C)c1ccc(NC(=O)c2ccc(-c3ncccc3NS(C)(=O)=O)cc2)cc1,152 nM,35 nM,
O=C(Nc1ccc(C(F)(F)F)cc1)c1ccc(-c2ncccc2C(F)(F)F)nc1,60 nM,56 nM,
Cc1cccnc1-c1ccc(C(=O)Nc2ccc(C(C)(C)C)cc2)cc1,,9 nM,
Cc1cccnc1-c1ccc(C(=O)Nc2ccc(C(F)(F)F)cc2)cn1,624 nM,583 nM,
N#Cc1ccc(NC(=O)c2ccc(-c3ncccc3C(F)(F)F)cc2)cc1,417 nM,1300 nM,
CC(C)(C)c1ccc(NC(=O)c2ccc(-c3ncccc3Cl)cc2)cc1,8 nM,2 nM,
CS(=O)(=O)N(c1cc(-c2ncccc2C(F)(F)F)ccc1C(=O)Nc1ccc(C(F)(F)F)cc1)S(C)(=O)=O,> 4000 nM,> 4000 nM,
CCS(=O)(=O)Nc1cccnc1-c1ccc(C(=O)Nc2ccc(C(C)(C)C)cc2)cc1,49 nM,4 nM,solubility [9]: 1 µg/mL
O=C(Nc1ccc(C(F)(F)F)cc1)c1ccc(-c2ncccc2Cl)cc1,58 nM,,
CN(c1cccnc1-c1ccc(C(=O)Nc2ccc(C(C)(C)C)cc2)cc1)S(C)(=O)=O,39 nM,9 nM,solubility [9]: 1 µg/mL
O=C(Nc1ccc(C(F)(F)F)cc1)c1ccc(-c2ncccc2C(F)(F)F)cc1Cl,> 4000 nM,2400 nM,
CC(C)(C)c1ccc(NC(=O)c2ccc(-c3ncccc3C#N)cc2)cc1,30 nM,13 nM,
Cc1cc(-c2ncccc2C)ccc1C(=O)Nc1ccc(C(F)(F)F)cc1,> 4000 nM,> 4000 nM,
Cc1cc(C(=O)Nc2ccc(C(F)(F)F)cc2)ccc1-c1ncccc1C(F)(F)F,257 nM,192 nM,

SMILES,IC50 [1],IC50 [2],further results
Cc1cccnc1-c1ccc(C(=O)Nc2ccc(Br)cc2)cc1,189 nM,366 nM,
CC(C)(C)c1ccc(NC(=O)c2ccc(-c3ncccc3CN3CCCC3)cc2)cc1,1530 nM,196 nM,
CCCOc1cccnc1-c1ccc(C(=O)Nc2ccc(C(C)(C)C)cc2)cc1,62 nM,20 nM,
Cc1cccnc1-c1ccc(C(=O)Nc2ccc(C(C)C)cc2)cc1,73 nM,43 nM,
CC(C)(C)c1ccc(NC(=O)c2ccc(-c3ncccc3CO)cc2)cc1,168 nM,88 nM,
CS(=O)(=O)Nc1cc(-c2ncccc2C(F)(F)F)ccc1C(=O)Nc1ccc(C(F)(F)F)cc1,1020 nM,722 nM,
Cc1nnc(-c2cccnc2-c2ccc(C(=O)Nc3ccc(C(C)(C)C)cc3)cc2)o1,387 nM,34 nM,
O=C(Nc1ccc(C(F)(F)F)cc1)c1ccc(-c2ncccc2C(F)(F)F)cc1,,26 nM,Activity [8]: inactive
CC(C)(C)c1ccc(NC(=O)c2ccc(-c3ncccc3C(=N)N)cc2)cc1,> 4000 nM,> 4000 nM,
CC(C)(C)c1ccc(NC(=O)c2ccc(-c3ncccc3C(=O)O)cc2)cc1,> 4000 nM,560 nM,solubility [9]: 104 µg/mL
CC(C)(C)c1ccc(NC(=O)c2ccc(-c3ncccc3-c3ncc[nH]3)cc2)cc1,3670 nM,694 nM,
CC(C)(C)c1ccc(NC(=O)c2ccc(-c3ncccc3F)cc2)cc1,3 nM,1 nM,
CCN(CC)Cc1cccnc1-c1ccc(C(=O)Nc2ccc(C(C)(C)C)cc2)cc1,1410 nM,334 nM,
Nc1cc(-c2ncccc2C(F)(F)F)ccc1C(=O)Nc1ccc(C(F)(F)F)cc1,93 nM,103 nM,
CC(C)(C)c1ccc(NC(=O)c2ccc(-c3ncccc3NS(=O)(=O)c3ccccc3)cc2)cc1,91 nM,166 nM,solubility [9]: 1 µg/mL
O=C(Nc1ccc(C(F)(F)F)cc1)c1ccc(-c2ncccc2C(F)(F)F)cc1O,43 nM,36 nM,
Cc1nc(-c2ncccc2C(F)(F)F)ccc1C(=O)Nc1ccc(C(F)(F)F)cc1,259 nM,263 nM,
CCCNc1cccnc1-c1ccc(C(=O)Nc2ccc(C(C)(C)C)cc2)cc1,158 nM,37 nM,
O=C(Nc1ccc(C(F)(F)F)cc1)c1ncc(-c2ncccc2C(F)(F)F)cn1,42 nM,60 nM,
CC(C)(C)c1ccc(NC(=O)c2ccc(-c3ncccc3-c3nnco3)cc2)cc1,91 nM,59 nM,
